This is an account of results in US20040121965A1, “Method of treating resistant tumors” (Wyeth Holdings Corporation, priority 2002, published 2004).

Where two headings read alike, the source gives them in different places. Some results are limits rather than exact numbers.

One experiment deals with KB-8-5 (MDR1+). Description: Cell survival assay (SRB), KB-8-5 (MDR1+). Conditions: for IC50: Homo sapiens, MDR1, read-out: In vitro IC50 (nM) KB85.
The subject of a further experiment is KB-V1 (MDR1++). Description: Cell survival assay (SRB), KB-V1 (MDR1++). Conditions: for IC50: Homo sapiens, read-out: In vitro IC50 (nM) KBV1.
The next experiment relates to KB-3-1. As to the kind of experiment: Cell survival assay (SRB), KB-3-1. Format: cell-based, human. Conditions: Homo sapiens. From the text:
Cells lines with previously known mechanisms of resistance. […] Res. 8: 207-218,1996); KB-3-1 (parental derived from an epidermoid carcinoma), KB-8.5, KB-V1 (Akiyama S-I, Fojo A, Hanover J A, Pastan I, Gottesman M M. Isolation and genetic characterization of human KB cell lines resistant to multiple drugs. Somatic Cell Mol. Gen., 11: 117-126,1985; Shen D-W, Cardarelli C, Hwang J, Cornwell M, Richert N, Ishii S, Pastan I, Gottesman MM. […] J. Biol. Chem., 261: 7762-7770, 1986); and HL-60 (parental derived from human leukemia) and HL60/AR (McGrath T., Center M. S. Adriamycin resistance in HL60 cells in the absence of detectable P-glycoprotein. Biochem. Res. Commun., 145:1171-1176,1987); A549 and A549.EpoB40 (He L., Yang C.-P.H., Horwitz S. B. Mutations in p-tubulin map to domains involved in regulation of microtubule stability in epothilone-resistant cell lines. Molecular Cancer Therapeutics. 1: 3-10, 2001). HCT-15 human colon carcinoma and DLD-1 human colon carcinoma are obtained from American Tissue Culture Collection. The MX-1W carcinoma is a Wyeth variant orginally obtained as MX-1 breast carcinoma from the National Cancer Institute. Cell lines selected for resistance to Representative Example 129. KB-3-1 cells are selected for resistance to Example 129 by chronically exposing cells to increasing concentrations of Example 129.
2.2. Cell Survival Assay: Standard Pharmacological Test Procedure. The concentration of candidate inhibitor required to inhibit 50% of cell growth (IC50) is done according to previously reported methods. […] Compounds are serially diluted into media as 2× stocks and 100 μl added to cells in duplicate. Compounds are incubated with cells for 3 days. At the end of the incubation period the sulforhodamine B (SRB) assay, which measures protein content as an assessment of cell survival, is performed as described previously (Skehan P, Storeng R, Scudiero D, Monks A, McMahon J, Vistica D, Warren J T, Bokesch H, Kenney S, Boyd MR. New calorimetric cytotoxicity assay for anticancer-drug screening. J Natl Cancer Inst 1990 Jul 4;82(13):1107-12) with some modification as follows. For KB-3-1 cells with 20% FCS, media is gently decanted and replaced with 200 μl of serum-free media mixed with cold 50% TCA for a final concentration of 10% TCA. The plates are incubated for 1 hr at 4° C., followed by washing 5 times in cold distilled water, then air dried overnight. The fixed cells are stained for 10 min with 80 μl of 0.04% SRB solution prepared in 1% glacial acetic acid. Stain is discarded and plates washed 5 times in 1% glacial acetic acid, then air-dried until completely dry. Stained cell product is dissolved in 150 μl of 10 mM Trizma Base and placed on a shaker for 20 minutes until fully dissolved. Absorbance is read on a Victor V multi-label plate reader (Perkin Elmer, Gaithersburg, Md.).

[1] abbreviates: KB 3-1, KB-3-1 cells (paclitaxel-sensitive parent), read-out: In vitro IC50 (nM) KB-3-1.

By IC50 is commonly meant the concentration needed to halve the response being measured. Regarding `CN[C@H](C(=O)N[C@H](C(=O)N(C)[C@H](/C=C(\C)C(=O)O)C(C)C)C(C)(C)C)C(C)(C)c1ccc(Br)cc1` [Example 43, 4-bromo-N,β,β-trimethylphenylalanyl-N^1-[(1S,2E)-3-carboxy-1-isopropyl-2-butenyl]-N^1,3-dimethyl-L-valinamide], the “Ratio KB85/KB” value in the experiment on KB-8-5 (MDR1+) came to 2.9. For the same compound, the IC50 turned out to be 4.4 nM in the experiment with KB-8-5 (MDR1+), 105 nM with KB-V1 (MDR1++) and 1.5 nM with KB-3-1 (setting [1]). Further, the “Ratio KBV1/KB” value in the experiment with KB-V1 (MDR1++) is on record as 69.8.

Consider `CN[C@H](C(=O)N[C@H](C(=O)N(C)[C@H](/C=C/C(=O)O)C(C)C)C(C)(C)C)C(C)(C)c1ccccc1` [Example 118, N,β,β-trimethyl-L-phenylalanyl-N^1-[(1S,2E)-3-carboxy-1-isopropylprop-2-enyl]-N^1,3-dimethyl-L-valinamide], for which, in the experiment on KB-8-5 (MDR1+), the “Ratio KB85/KB” value is recorded as 2.5 and the half-maximal inhibitory concentration (IC50) was determined as 479 nM. Moreover, in the experiment with KB-V1 (MDR1++), the “Ratio KBV1/KB” value worked out at 15.7 and the half-inhibitory concentration (IC50) was not below 3000 nM. Besides, the IC50 in the experiment on KB-3-1 (setting [1]) stood at 190 nM.

With `CN[C@H](C(=O)N[C@H](C(=O)N(C)[C@H](/C=C(/C)C(=O)O)C(C)C)C(C)(C)C)C(C)(C)c1ccccc1` [Example 117, N,β,β-trimethyl-L-phenylalanyl-N^1-[(1S,2Z)-3-carboxy-1-isopropyl-2-butenyl]-N^1,3-dimethyl-L-valinamide], in the experiment with KB-8-5 (MDR1+), the “Ratio KB85/KB” value was 2.1 and the IC50 amounted to 58 nM. Further, in the experiment with KB-V1 (MDR1++), the “Ratio KBV1/KB” value is 93.9 and the IC50 stood at 2630 nM. In addition, the IC50 in the experiment with KB-3-1 (KB 3-1, read-out: In vitro IC50 (nM) KB-3-1) came to 28 nM.

As to `CN[C@@H](C(=O)N[C@H](C(=O)N(C)[C@H](/C=C(\C)C(=O)O)C(C)C)C(C)(C)C)C(C)(C)c1ccc(/C=C/c2ccccc2)cc1` [Example 147, N,β,β-trimethyl4-[(E)-2-phenylvinyl]-D-phenylalanyl-N^1-[(1S,2E)-3-carboxy-1-isopropylbut-2-enyl]-N^1,3-dimethyl-L-valinamide], in the experiment on KB-8-5 (MDR1+), the “Ratio KB85/KB” value turned out to be 1.7 and the half-inhibitory concentration (IC50) worked out at 20 nM. In addition, in the experiment on KB-V1 (MDR1++), the “Ratio KBV1/KB” value was determined as 53.4 and the IC50 is 620 nM. Moreover, in the experiment on KB-3-1 (setting [1]), the half-maximal inhibitory concentration (IC50) was found to be 11.6 nM.

As for `CN[C@H](C(=O)N[C@H](C(=O)N(C)[C@H](/C=C(\C)C(=O)O)C(C)C)C(C)(C)C)C(C)(C)c1ccc(C(C)(C)C)cc1` [Example 30, 4-tert-Butyl-N,β,β-trimethylphenylalanyl-N^1-[(1S,2E)-3-carboxy-1-isopropyl-2-butenyl]-N^1,3-dimethyl-L-valinamide], in the experiment on KB-8-5 (MDR1+), the “Ratio KB85/KB” value is listed as 1.7 and the half-inhibitory concentration (IC50) was 5.1 nM. In addition, in the experiment with KB-V1 (MDR1++), the “Ratio KBV1/KB” value is on record as 35.9 and the 50% inhibitory concentration (IC50) came out at 108 nM. For the same compound, in the experiment on KB-3-1 (setting [1]), the concentration for half-maximal inhibition (IC50) stood at 3 nM.

For the compound `CCOC(=O)/C(C)=C/[C@H](C(C)C)N(C)C(=O)[C@@H](NC(=O)[C@H](NC)C(C)(C)c1ccccc1)C(C)(C)C` [Example 135, Ethyl (E,4S)-4-[((2S)-3,3-dimethyl-2-{[(2R)-3-methyl-2-(methylamino)-3-phenylbutanoyl]amino}butanoyl)(methyl)amino]-2,5-dimethyl-2-hexenoate], in the experiment with KB-8-5 (MDR1+), the “Ratio KB85/KB” value is 2.3 and the IC50 was 2090 nM. Further, in the experiment on KB-V1 (MDR1++), the “Ratio KBV1/KB” value turned out to be 2.9 and the half-maximal inhibitory concentration (IC50) was 2640 nM. For the same compound, in the experiment with KB-3-1 (setting [1]), the IC50 came to 909 nM.

For `C/C(=C\[C@H](C(C)C)N(C)C(=O)[C@@H](NC(=O)[C@@H](NCCO)C(C)(C)c1ccccc1)C(C)(C)C)C(=O)O` [Example 153, N-(2-hydroxyethyl)-β,β-dimethyl-L-phenylalanyl-N^1-[(1S,2E)-3-carboxy-1-isopropylbut-2-enyl]-N^1,3-dimethyl-L-valinamide], in the experiment with KB-8-5 (MDR1+), the “Ratio KB85/KB” value is reported as 3.4 and the concentration for half-maximal inhibition (IC50) was 616 nM. Also, in the experiment with KB-V1 (MDR1++), the “Ratio KBV1/KB” value is on record as 16.4 and the IC50 is more than 3000 nM. For the same compound, in the experiment with KB-3-1 (setting [1]), the IC50 is 183 nM.

For `CCOC(=O)/C(C)=C/[C@H](C(C)C)N(C)C(=O)[C@@H](NC(=O)[C@@H](NC)C(C)(C)c1ccc(C(C)(C)C)cc1)C(C)(C)C` [Example 29, 4-tert-Butyl-N,β,β-trimethylphenylalanyl-N^1-[(1S,2E)-4-ethoxy-1-isopropyl-3-methyl-4-oxo-2-butenyl]-N^1,3-dimethyl-L-valinamide], the “Ratio KB85/KB” value with KB-8-5 (MDR1+) is reported as 10.7. Besides, the results for the 50% inhibitory concentration (IC50) in the experiment on KB-8-5 (MDR1+), in the experiment with KB-V1 (MDR1++) and in the experiment with KB-3-1 (setting [1]) were 380 nM, not below 3000 nM and 35.4 nM, respectively. The “Ratio KBV1/KB” value with KB-V1 (MDR1++) amounted to 84.7.

For `CN[C@H](C(=O)N[C@H](C(=O)N(C)[C@H](/C=C(\C)C(=O)O)C(C)C)C(C)(C)C)C(C)(C)c1ccc(C(=O)c2ccccc2)cc1` [Example 91, 4-benzoyl-N,β,β-trimethyl-L-phenylalanyl-N^1-[(1S,2E)-3-carboxy-1-isopropylbut-2-enyl]-N^1,3-dimethyl-L-valinamide], in the experiment on KB-8-5 (MDR1+), the “Ratio KB85/KB” value was 4.0 and the IC50 was found to be 6.8 nM. Moreover, in the experiment with KB-V1 (MDR1++), the “Ratio KBV1/KB” value is 308.7 and the concentration for half-maximal inhibition (IC50) amounted to 525 nM. Further, in the experiment on KB-3-1 (setting [1]), the IC50 came to 1.7 nM.

Consider `CN[C@@H](C(=O)N[C@H](C(=O)N(C)[C@H](/C=C(\C)C(=O)O)C(C)C)C(C)(C)C)C(C)(C)c1cccs1` [Example 21, N-Methyl-3-(2-thienyl)-D-valyl-N^1-[(1S,2E)-3-carboxy-1-isopropyl-2-butenyl]-N^1,3-dimethyl-L-valinamide], for which, in the experiment on KB-8-5 (MDR1+), the “Ratio KB85/KB” value is 1.8 and the IC50 was 18.2 nM. Moreover, in the experiment with KB-V1 (MDR1++), the “Ratio KBV1/KB” value is listed as 74.4 and the IC50 is 758 nM. Also, in the experiment on KB-3-1 (setting [1]), the IC50 was found to be 10.2 nM.

On to `CN[C@H](C(=O)N[C@H](C(=O)N(C)[C@H](/C=C(\C)C(=O)O)CC(C)C)C(C)(C)C)C(C)(C)c1ccccc1` [Example 92, 4-{[3,3-Dimethyl-2-(3-methyl-2-methylamino-3-phenyl-butyrylamino)-butyryl]-methyl-amino}-2,6-dimethyl-hept-2-enoic Acid], for which, in the experiment on KB-8-5 (MDR1+), the “Ratio KB85/KB” value worked out at 2.1 and the 50% inhibitory concentration (IC50) stood at 264 nM. For the same compound, in the experiment on KB-V1 (MDR1++), the “Ratio KBV1/KB” value is given as 23.9 and the IC50 is not below 3000 nM. Further, the IC50 in the experiment with KB-3-1 (setting [1]) was found to be 126 nM.

`CN[C@H](C(=O)N[C@H](C(=O)N(C)[C@H](/C=C(\C)C(=O)O)C(C)C)C(C)(C)C)C(C)(C)c1ccsc1` [Example 23, N-Methyl-3-thien-3-yl-L-valyl-N^1-[(1S,2E)-3-carboxy-1-isopropylbut-2-enyl]-N^1,3-dimethyl-L-valinamide]: the “Ratio KB85/KB” value in the experiment with KB-8-5 (MDR1+) was found to be 3.1. The 50% inhibitory concentration (IC50) is 6.6 nM in the experiment on KB-8-5 (MDR1+), 724 nM in the experiment on KB-V1 (MDR1++) and 2.1 nM with KB-3-1 (setting [1]). Moreover, the “Ratio KBV1/KB” value in the experiment on KB-V1 (MDR1++) worked out at 345.0.

In the case of `CN[C@H](C(=O)N[C@H](C(=O)N(C)[C@H](/C=C(\C)C(=O)O)C(C)C)C(C)(C)C)C(C)(C)SCc1ccc(OC)cc1` [Example 150, 3-[(4-methoxybenzyl)thio]-N-methyl-L-valyl-N^1-[(1S,2E)-3-carboxy-1-isopropylbut-2-enyl]-N^1,3-dimethyl-L-valinamide], in the experiment on KB-8-5 (MDR1+), the “Ratio KB85/KB” value is given as 2.1 and the 50% inhibitory concentration (IC50) was 11.3 nM. Also, in the experiment on KB-V1 (MDR1++), the “Ratio KBV1/KB” value was found to be 36.5 and the half-inhibitory concentration (IC50) was 190 nM. For the same compound, the half-maximal inhibitory concentration (IC50) with KB-3-1 (setting [1]) amounted to 5.2 nM.

For the compound `CN[C@H](C(=O)N[C@@H](CCc1ccccc1)C(=O)N(C)[C@H](/C=C(\C)C(=O)O)C(C)C)C(C)(C)c1ccccc1` [Example 89, (E ,4S)-2,5-Dimethyl-4-[methyl((2S)-2-{[(2S)-3-methyl-2-(methylamino)-3-phenylbutanoyl]amino}4-phenylbutanoyl)amino]-2-hexenoic Acid], in the experiment with KB-8-5 (MDR1+), the “Ratio KB85/KB” value turned out to be 1.5 and the IC50 was found to be 274 nM. In addition, in the experiment on KB-V1 (MDR1++), the “Ratio KBV1/KB” value came to 16.6 and the IC50 was not below 3000 nM. In addition, the half-maximal inhibitory concentration (IC50) in the experiment on KB-3-1 (setting [1]) worked out at 180 nM.
